Experimental findings from article PMC9635925, “Biological screening of a unique drug library targeting MRGPRX2” (Frontiers in Immunology, 2022) are described below.

Test [1] deals with T1, MRGPRX2-WT (wild-type MRGPRX2 receptor) (Homo sapiens, UniProt Q96LB1).
T1 construct: expressed in transfected cells
T1 sequence (Q96LB1 1-330): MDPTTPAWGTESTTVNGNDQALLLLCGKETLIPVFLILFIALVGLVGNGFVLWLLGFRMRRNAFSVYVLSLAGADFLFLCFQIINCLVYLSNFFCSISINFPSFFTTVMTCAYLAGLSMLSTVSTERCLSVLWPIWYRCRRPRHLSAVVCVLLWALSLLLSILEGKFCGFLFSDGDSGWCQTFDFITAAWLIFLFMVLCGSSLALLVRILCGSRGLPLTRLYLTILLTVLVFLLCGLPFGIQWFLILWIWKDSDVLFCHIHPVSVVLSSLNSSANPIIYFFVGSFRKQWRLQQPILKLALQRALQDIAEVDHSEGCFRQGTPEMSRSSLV
Nature of the test: Primary HTS, Ca2+ mobilization (fluorescence ratio, B-score) in HEK293-Gα15 cells stably expressing wild-type MRGPRX2. The settings on record: 10 μM compound. Format: cell-based. As for the experimental part: (§1) We performed an experimental HTS on the Johns Hopkins Drug Library, which includes 1,811 (57%) FDA-approved drugs among 3,456 total compounds (28% of all known drugs worldwide) ([15]). We performed the HTS at the Johns Hopkins University ChemBioCORE Facility and employed HEK293-Gα15 cell lines that stably expressed MRGPRX2 protein.
(§2) We utilized 10 μM compounds (each compound was tested in triplicate) and calculated the compound effect using the signal-to-background fluorescence ratio (see Supplementary Methods).
(§3) In the HTS, we determined MRGPRX2 activation by a Ca^2+ mobilization assay that recorded a fluorescence change by utilizing a Functional Drug Screening System (FDSS 6000; Hamamatsu); we evaluated the compound effect using the calculated fluorescence ratio. We further applied the B-score normalization, which provided robust corrections for variation in fluorescence ratio ([22]).
(§4) We performed an experimental high-throughput screening (HTS) on the Johns Hopkins Drug Library (JHDL), which includes 1,811 (57%) FDA-approved drugs among 3,456 total compounds (28% of all known drugs worldwide). The remaining compounds in JHDL are catalogued in one or more of the resources below: British Approved Names (BAN); Dénominations Communes Françaises (DCF); International Nonproprietary Names (INN); Japanese Adopted Names (JAN); MI (Merck Index); National Formulary drug name (NF); and United States Accepted Names (USAN). The JHU drug library is stocked in 96 well plates at 10 mM in 100% DMSO and stored at -80 °C. We used a final concentration of 10 uM for each compound and DMSO concentration of 0.1% (tested in triplicate). […] We evaluated compound effect using the calculated fluorescence ratio. We further calculated B-scores, which are a relative potency score similar to Z scores in that they are the ratio of an adjusted raw value in the numerator to a measure of variability in the denominator.
Background: Calcium flux is commonly read through the fluorescence of an indicator in the cells.

The target in test [2] is T2, MRGPRX2-MUT (MRGPRX2 N62S mutation) (Homo sapiens, UniProt Q96LB1, N62S).
T2 construct: expressed in transfected cells
T2 sequence (Q96LB1 1-330 N62S): T1 sequence (Q96LB1 1-330) with N62S
The test is described as follows: Primary HTS, Ca2+ mobilization (fluorescence ratio, B-score) in HEK293-Gα15 cells stably expressing the MRGPRX2 N62S mutation. In kind it is cell-based. The settings on record: for B-scores (MUT): 10 μM compound, MRGPRX2-MUT (N62S) cells; for Change of B-scores (%): 10 μM. The protocol: as §1, §2, §3, §4

Where [3] appears, read: MRGPRX2-MUT in comparison to MRGPRX2-WT cells, Supplementary Table 1.
The mark [4] stands for this setting: MRGPRX2-MUT in comparison to MRGPRX2-WT cells, Table 1.
The mark [5] stands for this setting: MRGPRX2-MUT versus MRGPRX2-WT cells, Supplementary Table 2.
[6] abbreviates: Supplementary Table 2, listed as Dextromethorphan (Delsym).

Each structure is given as a SMILES string. Where a chain is given by its changes, count along the chain named. Counter-ions that a name gives are not always drawn.

Consider `CC(=O)O.CC(=O)O.CC[C@H](C)C[C@H](C)CCCCCCCCC(=O)N[C@H]1C[C@@H](O)[C@@H](NCCN)NC(=O)[C@@H]2[C@@H](O)CCN2C(=O)[C@H]([C@H](O)CCN)NC(=O)[C@H]([C@H](O)[C@@H](O)c2ccc(O)cc2)NC(=O)[C@@H]2C[C@@H](O)CN2C(=O)[C@H]([C@@H](C)O)NC1=O` [Caspofungin acetate], for which, in test [1] (Supplementary Table 1), the “B-scores (WT)” value is recorded as 29.98. The “B-scores (MUT)” value in test [2] (Supplementary Table 1) is given as 16.90. Also, the “Change of B-scores (%)” value in test [2] (setting [3]) is listed as -43.63%.
As for `COc1ccc2cc1Oc1ccc(cc1)C[C@H]1c3c(cc4c(c3Oc3cc5c(cc3OC)CCN(C)[C@@H]5C2)OCO4)CCN1C` [Cepharanthine], the “B-scores (WT)” value in test [1] (Supplementary Table 1) and in test [1] (Table 1) was 19.73 throughout. Further, the “B-scores (MUT)” value in test [2] (Supplementary Table 1) and in test [2] (Table 1) was 1.14 each time. The “Change of B-scores (%)” value in test [2] (setting [3]) and in test [2] (setting [4]) was -94.20% throughout.
As for `CN(C)CCN(Cc1ccc(Cl)cc1)c1ccccn1.Cl` [Chloropyramine Hydrochloride], the “B-scores (WT)” value in test [1] (Supplementary Table 2) stood at 14.6. The “B-scores (MUT)” value in test [2] (Supplementary Table 2) came out at 3.24. In test [2] (setting [5]), the “Change of B-scores (%)” value is listed as -77.83%.
In the case of `CN(C)CCC(c1ccc(Cl)cc1)c1ccccn1` (centres unmarked) [Chlorpheniramine], in test [1] (Supplementary Table 2), the “B-scores (WT)” value was 9.6. In addition, the “B-scores (MUT)” value in test [2] (Supplementary Table 2) came out at 0.88. For the same molecule, the “Change of B-scores (%)” value in test [2] (setting [5]) is -90.88%.
For `CN(C)CCCN1c2ccccc2Sc2ccc(Cl)cc21` [Chlorpromazine Hydrochloride], in that order: 7.97, 2.69 and -66.27%.
The like results for `CN(C)CCCN1c2ccccc2Sc2ccc(Cl)cc21` [Chlorpromazine] were, in that order, 10.2, -0.05 and -100.54%.
On to `O=C(O)c1cn(C2CC2)c2cc(N3CCNCC3)c(F)cc2c1=O` [Ciprofloxacin], for which the “B-scores (WT)” value in test [1] (Supplementary Table 2) was determined as 7.33. The “B-scores (MUT)” value in test [2] (Supplementary Table 2) was found to be 1.91. In addition, in test [2] (setting [5]), the “Change of B-scores (%)” value is recorded as -74%.
With `Cl.NC1CCN(c2c(F)cc3c(=O)c(C(=O)O)cn(C4CC4)c3c2Cl)C1` (centres unmarked) [Clinafoxacin Hydrochloride], the “B-scores (WT)” value in test [1] (Supplementary Table 1) and in test [1] (Table 1) was 26.08 throughout. The “B-scores (MUT)” value in test [2] (Supplementary Table 1) and in test [2] (Table 1) was 0.92 each time. Besides, the “Change of B-scores (%)” value in test [2] (setting [3]) and in test [2] (setting [4]) was -96.48% in each case.
Take `CN(C)CCCN1c2ccccc2CCc2ccc(Cl)cc21` [Clomipramine Hydrochloride]: the “B-scores (WT)” value in test [1] (Supplementary Table 1), in test [1] (Supplementary Table 2) and in test [1] (Table 1) was 30.29 in each case. For the same molecule, the “B-scores (MUT)” value in test [2] (Supplementary Table 1), in test [2] (Supplementary Table 2) and in test [2] (Table 1) was 2.17 in each case. Also, the “Change of B-scores (%)” value in test [2] (setting [3]), in test [2] (setting [4]) and in test [2] (setting [5]) was -92.83% throughout.
On to `C=C[C@@]1(C)CC(=O)[C@]2(O)[C@@]3(C)[C@@H](O)CCC(C)(C)[C@@H]3[C@H](O)[C@H](OC(C)=O)[C@@]2(C)O1` [Colforsin], for which the “B-scores (WT)” value in test [1] (Supplementary Table 1) was found to be 21.10. The “B-scores (MUT)” value in test [2] (Supplementary Table 1) is on record as 0.76. In addition, in test [2] (setting [3]), the “Change of B-scores (%)” value is given as -96.40%.
As for `C[C@@H](Oc1cc(-c2cnn(C3CCNCC3)c2)cnc1N)c1c(Cl)ccc(F)c1Cl` [Crizotinib], the “B-scores (WT)” value in test [1] (Supplementary Table 1) and in test [1] (Table 1) was 22.06 in each case. Also, the “B-scores (MUT)” value in test [2] (Table 1) was -0.44. Further, the “Change of B-scores (%)” value in test [2] (setting [3]) and in test [2] (setting [4]) was -101.99% each time.
`CN(C)CCC=C1c2ccccc2C=Cc2ccccc21` [Cyclobenzaprine Hydrochloride]: the “B-scores (WT)” value in test [1] (Supplementary Table 2) amounted to 16.49. In addition, the “B-scores (MUT)” value in test [2] (Supplementary Table 2) is recorded as 1.22. Besides, the “Change of B-scores (%)” value in test [2] (setting [5]) was -92.62%.
As to `CN1CCC(=C2c3ccccc3C=Cc3ccccc32)CC1` [Cyproheptadine Hydrochloride], the “B-scores (WT)” value in test [1] (Supplementary Table 1) and in test [1] (Table 1) was 41.66 throughout. Moreover, the “B-scores (MUT)” value in test [2] (Supplementary Table 1) and in test [2] (Table 1) was 2.29 each time. Besides, the “Change of B-scores (%)” value in test [2] (setting [3]) and in test [2] (setting [4]) was -94.50% in each case.
As for `CO[C@@H](C(=O)N1Cc2n[nH]c(NC(=O)c3ccc(N4CCN(C)CC4)cc3)c2C1)c1ccccc1` [Danusertib], the “B-scores (WT)” value in test [1] (Supplementary Table 1) and in test [1] (Table 1) was 20.37 throughout. The “B-scores (MUT)” value in test [2] (Supplementary Table 1) and in test [2] (Table 1) was 0.61 each time. The “Change of B-scores (%)” value in test [2] (setting [3]) and in test [2] (setting [4]) was -97.00% each time.
As to `COc1cccc2c1C(=O)c1c(O)c3c(c(O)c1C2=O)C[C@@](O)(C(C)=O)C[C@@H]3O[C@H]1C[C@H](N)[C@H](O)[C@H](C)O1` [Daunorubicin], the “B-scores (WT)” value in test [1] (Supplementary Table 2) is given as 8.85. For the same molecule, the “B-scores (MUT)” value in test [2] (Supplementary Table 2) turned out to be 37.13. Further, the “Change of B-scores (%)” value in test [2] (setting [5]) is listed as 319.41%.
For `CNCCCN1c2ccccc2CCc2ccccc21` [Desipramine Hydrochloride], in that order: 7.48, -2.96 and -139.62%.
For `CNCCCN1c2ccccc2CCc2ccccc21` [Desipramine], in that order: 13.96, 1.19 and -91.45%.
As for `CN(C)CC[C@@H](c1ccc(Cl)cc1)c1ccccn1` [Dexchlorpheniramine Maleate], the “B-scores (WT)” value in test [1] (Supplementary Table 1), in test [1] (Supplementary Table 2) and in test [1] (Table 1) was 24.82 in each case. The “B-scores (MUT)” value in test [2] (Supplementary Table 1), in test [2] (Supplementary Table 2) and in test [2] (Table 1) was 0.56 throughout. The “Change of B-scores (%)” value in test [2] (setting [3]), in test [2] (setting [4]) and in test [2] (setting [5]) was -97.76% each time.
Consider `Br.COc1ccc2c(c1)[C@]13CCCC[C@@H]1[C@H](C2)N(C)CC3.O` [Dextromethorphan Hydrobromide Monohydrate], for which the “B-scores (WT)” value in test [1] (Supplementary Table 1) is on record as 23.02. Also, the “B-scores (MUT)” value in test [2] (Supplementary Table 1) is 54.88. For the same molecule, the “Change of B-scores (%)” value in test [2] (setting [3]) was 138.39%.
For `COc1ccc2c(c1)[C@]13CCCC[C@@H]1[C@H](C2)N(C)CC3` [Dextromethorphan hydrobromide], the “B-scores (WT)” value in test [1] (Supplementary Table 1) worked out at 38.47; in test [1] (Supplementary Table 2), 23.02; in test [1] (setting [6]) it was 38.47. Also, the “B-scores (MUT)” value in test [2] (Supplementary Table 1) worked out at 84.34; in test [2] (Supplementary Table 2), 54.88; in test [2] (setting [6]), 84.34. For the same molecule, the “Change of B-scores (%)” value in test [2] (setting [3]) was determined as 119.23%; in test [2] (setting [5]) it was 138.39%; in test [2] (MRGPRX2-MUT versus MRGPRX2-WT cells, Supplementary Table 2, listed as Dextromethorphan (Delsym)), 119.23%.
Regarding `CN1CC[C@@]23CCCC[C@@H]2[C@@H]1Cc1ccc(O)cc13` [Dextrorphan], the “B-scores (WT)” value in test [1] (Supplementary Table 2) stood at 31.94. The “B-scores (MUT)” value in test [2] (Supplementary Table 2) is 68.33. Besides, in test [2] (setting [5]), the “Change of B-scores (%)” value is given as 113.94%.
